{
  "source": "patent US8729088B2",
  "about": "“Toll-like receptor modulators and treatment of diseases” (The Regents of the University of California, priority 2009, dated 2014)",
  "key": {"C57BL/6 mice": {"tested_on": "C57BL/6 mice", "assay": "In vivo evaluation of adverse effects of TLR7 conjugates", "details": "10 nmoles per mouse with OVA", "description": "Immunological reaction initiation (e.g. adjuvanticity) by TLR7 conjugates was also examined. Groups (n=5) of C57BL/6 mice were subcutaneously immunized with 20 μg ovalbumin (OVA) mixed with approximately 10 nmol of various TLR7 conjugates, on days 0 and 7, where 10 nmol is a dosage target for the TLR7 portion of the conjugate, and the actual amount will be dependent on the actual chemical formula of each conjugate. […] Sera were collected on days 0, 7, 14, 21, 28, 42 and 56. Mice immunized with saline or OVA mixed with vehicle served as controls. Mice were sacrificed on day 56 and the spleens were harvested for preparation of splenocytes and histological slides. Approximately 200 microliters of a 2.5×10^6/mL spleen cell stock were aliquoted into round-bottom tissue culture microtiter plates in triplicate in a total volume of 200 μl RPMI 1640 complete medium [RPMI1640 (Irvine Scientific, Irvine, Calif.) supplemented with 10% heat-inactivated FCS, 2 mM L-glutamine, and 100 U/mL penicillin/100 μg/mL streptomycin] and restimulated with either 100 μg/mL OVA or medium alone. […] Sections 5 μm thick were stained with hematoxylin and eosin (H&E) and evaluated under the microscope. […]\nTherefore, as part of the experimental protocol, body weight and skin reaction (at site of injection) of the mice immunized, with lipid-TLR7 agonist conjugates, was monitored. […]"}, "[1]": {"tested_on": "pro-inflammatory cytokines (IL-6, TNF-α) in sera", "assay": "In vivo kinetics of pro-inflammatory cytokine induction after intravenous injection", "parameters": "species or system mouse", "experimental": "The pharmacokinetics of pro inflammatory cytokine induction by TLR7 conjugates was examined using 6- to 8-week old C57BL/6 mice. […] Blood samples were collected 2, 4, 6, 24 or 48 hours after injections. Sera were separated and kept at −20° C. until use."}},
  "data": [
    {"smiles": "CCCCCCCC/C=C\\CCCCCCCC(=O)OCC(COP(=O)(O)OCCNC(=O)c1ccc(Cn2c(=O)[nH]c3c(N)nc(OCCOC)nc32)cc1)OC(=O)CCCCCCC/C=C\\CCCCCCCC", "note": "(centres unmarked) [Compound 6, 2-(4-((6-amino-2-(2-methoxyethoxy)-8-oxo-7H-purin-9(8H)-yl)methyl)benzamido)ethyl 2,3-bis(oleoyloxy)propyl phosphate]", "values": [
      {"measurement": "average body weights versus mice injected saline", "setting": "C57BL/6 mice", "value": "No significant differences"}
    ]},
    {"smiles": "COCCOc1nc(N)c2nc(O)n(Cc3ccc(C(=O)NCCOCCOCCOCCOCCOCCOCCOCCOCCOCCOCCn4cc(CCC(=O)O)nn4)cc3)c2n1", "note": "[Compound 8, 3-(1-(1-(4-((6-amino-8-hydroxy-2-(2-methoxyethoxy)-9H-purin-9-yl)methyl)phenyl)-1-oxo-5,8,11,14,17,20,23,26,29,32-decaoxa-2-azatetratriacontan-34-yl)-1H-1,2,3-triazol-4-yl)propanoic acid]", "values": [
      {"measurement": "IL-6 induction in serum", "setting": "[1]; 200 nmol per animal i.v.", "value": "only a low level"},
      {"measurement": "TNFα induction in serum", "setting": "[1]; 200 nmol per animal i.v., any point post injection", "value": "no significant induction"},
      {"measurement": "IL-6 or TNFα stimulating activity", "setting": "[1]; FIGS. 4A-B", "value": "little or no IL-6 or TNFα stimulating activity"},
      {"measurement": "antagonistic activity", "setting": "[1]; concluded from FIGS. 4A-B, 7A-B and 8", "value": "antagonistic activity under certain conditions"}
    ]}
  ]
}
